In PMC7340446, “Optimization of PTH/PTHrP Hybrid Peptides to Derive a Long‐Acting PTH Analog (LA‐PTH)” (JBMR Plus, 2020):
Where no end group is shown, it is not given here.

Assays:
[1] = test system: thyroparathyroidectomized (TPTX) rats; experiment: Repeated daily administration in TPTX rats (11‐day treatment, 12‐day study); type: in vivo, rat
Protocol: TPTX rats were injected i.v. or s.c. with vehicle or vehicle containing a PTH peptide, or orally treated once daily with vehicle (medium‐chain triglyceride; Chugai Pharma Manufacturing, Tokyo, Japan) or vehicle containing alfacalcidol (Chugai Pharma Manufacturing) for 11 days. Blood samples were obtained from the tail or jugular vein immediately before and at times after injection. Urine samples at 0 to 8 hours or 8 to 24 hours, were collected in metabolic cages. sCa and uCa, serum inorganic phosphorus (sPi) and urinary phosphorus (uPi), and creatinine (uCre) were measured with an automatic analyzer (7180; Hitachi, Ltd, Chiyoda, Tokyo, Japan). Urinary deoxypyridinoline (uDpD) was measured using a Metra DPD EIA kit (DS Pharma Biomedical, Osaka, Japan), and the data were normalized to the uCre concentrations. Serum FGF23 was measured using FGF23 ELISA assay (Immunodiagnostik AG, Bensheim, Germany). Serum 1,25‐dihydroxyvitamin D [1,25(OH)2D3] levels were determined by a ELISA immunoassay (Immunodiagnostic System Ltd, Bolden, UK).
Figure 4 Effects of 11‐day treatment (12‐day study) with M‐PTH/PTHrP or alfacalcidol on serum calcium (sCa) in thyroparathyroidectomized (TPTX) rats. TPTX rats were treated for 11 days with daily s.c. injection of either vehicle or M‐PTH/PTHrP, or with daily oral alfacalcidol at the indicated doses, and sham‐surgery control rats were s.c. injected daily with vehicle. The levels of Ca in serum and urine were assessed. Blood samples were collected from the jugular vein at 8 hours (A) and at 24 hours (B) after the last treatment administration, and assessed for total sCa. Total urine was collected in metabolic cages over the time intervals of 0 to 8 hours (C), and 8 to 24 hours (D) and assessed for total urinary Ca. Data are means ± SEM; n = 6 or 5 (2.0 and 4.0 nmol/kg of M‐PTH/PTHrP); *p < 0.05 M‐PTH/PTHrP versus TPTX‐vehicle; #p < 0.05 TPTX vehicle versus sham.
Supplementary file JBM4-4-e10367-s001.pdf: Figure S1 PTH ligand‐induced cAMP‐signaling responses in GP‐2.3 cells Time course of the cAMP‐dependent luminescence response measured at 2‐minute intervals in the presence of each ligand at 10 nM (Ligand on‐phase) and B) Time course of the cAMP‐dependent luminescence response measured at 2‐minute intervals after washout of unbound ligand (Ligand wash‐out phase). GP‐2.3 cells preloaded with luciferin were treated with a concentration of PTH ligand at a concentration of 10 nM for 30 min, and cAMP‐dependent luminescence was measured at two‐minute intervals (ligand‐on phase). The cells were then removed from the plate reader, rinsed twice with media to remove unbound ligand, and then fresh media containing luciferin but lacking ligand was added and luminescence was assessed for additional 90 min (Ligand wash‐out phase). Data are means (± SEM) of four experiments, each performed in triplicate. Figure S2. In vivo calcemic actions of M‐PTH/PTHrP hybrid analogs in normal rats. The indicated M‐PTH/PTHrP hybrid analogs (sequences are shown in Figure 1) along with PTH(1–34) and PTHrP(1–36) controls, were administered at the indicated doses by i.v. injection, and at the indicated time points blood was collected from the tail vein and measured for ionized calcium (Ca^2+). Panels A‐C represent three separate experiments. Data are means ± SEM; n = 6 or 4 (80 nmol/kg of M‐PTH(1‐11)/PTHrP(12–36), M‐PTH(1‐14)/PTHrP(12–36), M‐PTH(1‐17)/PTHrP(18–36) and 1.25 nmol/kg of M‐PTH(1–30)/PTHrP(31–36)). *p < 0.05 versus Vehicle. Figure S3. Effects of 11 days treatment (12 days study) of M‐PTH/PTHrP on serum 1,25(OH) 2 Vitamin‐D3, urinary deoxypyridinoline (Dpd) and serum FGF23 in TPTX rats. Serum and urine samples obtained from the TPTX and sham control rats of the two‐week daily‐administration experiment shown in Figure 4 were analyzed by ELISA for the indicated markers. A) serum 1,25(OH)2Vitamin‐D3. B) urinary deoxypyridinoline (DpD)/Cre. C) serum FGF23. […]

[2] = target: T1, human PTHR1 (R^0 conformation) (Homo sapiens, UniProt Q03431); experiment: Competition binding to the R^0 conformation of PTHR1
T1 construct: expressed in transfected cells; host or cells: COS-7 cells (transient transfection; membranes)
T1 sequence (Q03431 27-593): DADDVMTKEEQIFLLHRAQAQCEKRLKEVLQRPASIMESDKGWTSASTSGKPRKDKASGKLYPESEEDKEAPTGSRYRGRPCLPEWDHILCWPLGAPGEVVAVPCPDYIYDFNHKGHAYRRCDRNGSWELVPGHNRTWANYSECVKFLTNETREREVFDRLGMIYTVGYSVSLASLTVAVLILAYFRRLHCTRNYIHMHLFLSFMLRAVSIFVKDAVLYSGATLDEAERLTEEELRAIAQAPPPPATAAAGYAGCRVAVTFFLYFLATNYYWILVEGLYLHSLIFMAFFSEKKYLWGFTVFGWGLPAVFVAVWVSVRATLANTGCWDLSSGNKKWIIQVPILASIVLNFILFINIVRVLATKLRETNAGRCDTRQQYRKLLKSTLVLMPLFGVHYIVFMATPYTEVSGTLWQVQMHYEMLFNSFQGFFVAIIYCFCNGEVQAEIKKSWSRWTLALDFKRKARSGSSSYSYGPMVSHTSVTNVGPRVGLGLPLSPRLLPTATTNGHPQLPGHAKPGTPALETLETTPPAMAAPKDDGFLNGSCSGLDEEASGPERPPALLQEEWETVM

[3] = target: T2, human PTHR1 (RG conformation) (Homo sapiens, UniProt Q03431); experiment: Competition binding to the RG conformation of PTHR1
T2 construct: expressed in transfected cells; host or cells: COS-7 cells (transient co-transfection; membranes)
T2 sequence (Q03431 27-593): T1 sequence (Q03431 27-593)

human PTHR1 = target: T3, human PTHR1 (Homo sapiens, UniProt Q03431); experiment: GloSensor cAMP signaling assay in GP‐2.3 cells; type: cell-based
T3 construct: expressed in transfected cells
T3 sequence (Q03431 27-593): T1 sequence (Q03431 27-593)
Protocol: GP‐2.3 cells, an HEK‐293 cell‐ (ATCC CRL‐1573) derived cell line that stably expresses the luciferase‐based pGloSensor‐22F (GloSensor) cAMP reporter plasmid (Promega Corp., […], USA) along with the human PTHR1, were cultured in DMEM (Thermo Fisher Scientific, Waltham, MA, USA) supplemented with FBS (10%). Cells were seeded into white 96‐well plates for GloSensor cAMP assays, and used for assay 2 to 3 days after the monolayer became confluent.16 UGS‐56 cells were derived from the UMR106 rat osteoblastic cell line by stably transfecting the cells to express the GloSensor‐cAMP reporter. B64 cells are a derivative of the porcine kidney cell line, LLC‐PK1 that stably expresses the human PTHR1. COS‐7 cells (ATCC CRL‐1661) were seeded into 10‐cm dishes and transiently transfected to express the human PTHR1 with or without a high‐affinity, negative‐dominant Gαs subunit; 2 days after transfection, the cells were harvested for membrane preparations.13 All transfections were performed using the Fugene HD reagent (Promega Corp.).
Changes in cAMP levels were assessed in intact GP‐2.3 or UGS‐56 cells via the (GloSensor) cAMP reporter. The intact cells in white 96‐well plates were preloaded with luciferin in CO2‐independent culture media (Thermo Fisher) for 20 min at room temperature, then treated with a test ligand diluted in the same media and placed into a Envision plate reader (PerkinElmer, Waltham, MA, USA) for an additional 30 min, during which time cAMP‐dependent luminescence was measured at 2‐min intervals (ligand‐on phase). […] For washout responses, the cells were treated as above, and after the ligand‐on phase, the plate was removed from the plate reader, the cells were rinsed with media, then fresh media containing only luciferin was added and luminescence was measured for an additional 90 min (washout phase). EC50 values were determined using the 4‐parameter sigmoidal dose–response equation in Prism 8.0 (GraphPad Software, Inc., La Jolla, CA, USA).
The cells were then removed from the plate reader, rinsed twice with media to remove unbound ligand, and then fresh media containing luciferin but lacking ligand was added and luminescence was assessed for additional 90 min (Ligand wash‐out phase). Data are means (± SEM) of four experiments, each performed in triplicate. Figure S2. […] Panels A‐C represent three separate experiments. […] Figure S3. […] Serum and urine samples obtained from the TPTX and sham control rats of the two‐week daily‐administration experiment shown in Figure 4 were analyzed by ELISA for the indicated markers. A) serum 1,25(OH)2Vitamin‐D3. B) urinary deoxypyridinoline (DpD)/Cre. C) serum FGF23. […] Serum and urine samples obtained from the TPTX and sham control rats of the two‐week daily‐administration experiment shown in Figure 4 were analyzed for total inorganic phosphorus (Pi). […] Figure S5. […] B) The same peptides were assessed at a concentration of 3 nM for the capacity to stimulate cAMP formation in HKRK‐B64 cells (LLC‐PK1 cells stably expressing the hPTHR1, cAMP measured by RIA). […] Data in A and B are means (±SEM) of three experiments, each performed in triplicate or quadruplicate. […] D) The same analogs as in C were assessed at a 3.0 nM concentration for the capacity to stimulate cAMP formation in HKRK‐B64 cells. Data are means (±SEM) of three experiments, each performed in duplicate. […] Data are means (±SEM) of duplicate determinations of a single experiment representative of three others. Click here for additional data file.

Compound | uCa excretion ([1]; daily oral 0.2 μg/kg, 0‐ to 8‐ and 8‐ to 24‐hour intervals) | IC50 [2] [nM] | IC50 [3] [nM] | Emax (human PTHR1) [%] | Serum levels of FGF23 ([1]; M‐PTH/PTHrP at 4.0 and 8.0 nmol/kg s.c., alfacalcidol at 0.2 μg/kg oral, daily, ELISA) | sCa levels ([1]; daily oral 0.2 μg/kg) | sPi levels ([1]; daily oral, especially at the 0.2 μg/kg dose)
AVAEIQLMHQRAKWLNSLRRRFFLHHLIAEIHTAEI [M‐PTH(1‐17)/PTHrP(18‐36)] |  | 1.91 ± 0.39 | 0.23 ± 0.02 | 105 ± 5 |  |  | 
AVAEIQLMHQRAKWLNSMERVEFLHHLIAEIHTAEI [M‐PTH(1‐22)/PTHrP(23‐36)] |  | 7.8 ± 2.55 | 0.67 ± 0.02 | 104 ± 4 |  |  | 
AVAEIQLMHQRAKWLNSMERVEWLRKLIAEIHTAEI [M‐PTH(1‐26)/PTHrP(27‐36)] |  | 1.73 ± 0.75 | 0.13 ± 0.04 | 106 ± 5 |  |  | 
AVAEIQLMHQRAKWLNSMRRRFFLHHLIAEIHTAEI [M‐PTH(1‐18)/PTHrP(19‐36)] |  | 1.66 ± 0.22 | 0.13 ± 0.02 | 107 ± 5 |  |  | 
AVAEIQLMHQRGKSIQDLRRRFFLHHLIAEIHTAEI [M‐PTH(1‐11)/PTHrP(12‐36)] |  | 2.14 ± 0.47 | 0.55 ± 0.15 | 103 ± 3 |  |  | 

Continued, in another order:

uCa excretion ([1]; daily oral 0.2 μg/kg, 0‐ to 8‐ and 8‐ to 24‐hour intervals) | IC50 [2] [nM] | IC50 [3] [nM] | Emax (human PTHR1) [%] | Compound | Serum levels of FGF23 ([1]; M‐PTH/PTHrP at 4.0 and 8.0 nmol/kg s.c., alfacalcidol at 0.2 μg/kg oral, daily, ELISA) | sCa levels ([1]; daily oral 0.2 μg/kg) | sPi levels ([1]; daily oral, especially at the 0.2 μg/kg dose)
high uCa excretion levels |  |  |  | C=C1/C(=C\C=C2/CCC[C@]3(C)[C@@H]([C@H](C)CCCC(C)C)CC[C@@H]23)C[C@@H](O)C[C@@H]1O [alfacalcidol, 1α‐hydroxycholecalciferol] | significantly increased | comparable to those of the sham group | normalized sPi levels
 | 2.98 ± 0.48 | 0.21 ± 0.03 | 106 ± 4 | AVAEIQLMHQRAKWLNSMERVEWLRKKLQDIHTAEI [M‐PTH(1‐30)/PTHrP(31‐36)] |  |  | 
